{"source": "patent US11337990B2", "about": "“Human milk oligosaccharides to promote growth of beneficial bacteria” (ABBOTT LABORATORIES, priority 2010, dated 2022)", "key": {"[1]": {"tested_on": "bifidobacteria strains", "experiment": "Bacterial growth assay (OD600), panel of 12 strains", "type": "cell-based, Bifidobacterium", "conditions": "1% carbohydrate in sMRS+cysteine", "procedure": "(§1) Coy Laboratory Products, Grass Lake, Mich.). Subsequently, the cultures are passed twice on a semi-synthetic MRS medium ([…] which is supplemented with 1% (w/v) filter-sterilized glucose as the sole carbohydrate source. […] For bifidobacteria strains, the same procedure is followed except all media are supplemented with 0.5 g/l L-cysteine/HCl. [table] After the 2nd pass in sMRS+glucose+cysteine, the cultures are washed once with 10 mL of sterile sMRS+cysteine (no carbohydrate), resuspended in 10 ml of sterile sMRS+cysteine (no carbohydrate) and then used as a 1% inoculum. The carbohydrates are sterilized with a 0.22 micron filter and used at a 1% final concentration. Cell growth is performed in 250 μL of sMRS+cysteine covered with 50 μL of mineral oil in a Bioscreen 100-well Honeycomb plate. […] The plate reader is operated in discontinuous mode, with absorbance readings performed in 30-minute intervals, and preceded by 30-second shaking intervals at maximum speed. Controls consist of inoculated medium lacking carbohydrate. […] All three plates include a positive control (glucose) and negative control (no carbohydrate). The OD600 data for each carbohydrate is corrected by subtracting the OD600 of the basal media (sMRS)+cysteine from the sample plate for each probiotic. Maximum OD is determined by inspection of the corrected growth data. OD is determined by subtracting the initial corrected OD (time point 0) from the maximum corrected OD. Samples are grown in biologically independent triplicates and the resulting growth kinetic data are expressed as the mean of these replicates. For the growth curve plots, OD600 vs. time is first plotted for the bacteria grown on medium lacking carbohydrate (sMRS). For all other carbohydrates, the OD600 data is corrected by subtracting the OD600 of sMRS."}, "[2]": {"tested_on": "Caco-2 cells", "experiment": "Alkaline phosphatase activity per milligram of protein (cell differentiation), Caco-2", "type": "cell-based, human", "conditions": "Example 48: LNnT or 2′FL 20, 200, 2000 mg/L; 6′SL 40, 400, 4000 mg/mL; 72 hours", "procedure": "In a second experiment, Caco-2 cells, which model more mature epithelial cells of the small intestine, are incubated in a humidified atmosphere of 5% carbon dioxide at 37° C. in the presence of LNnT or 2′FL at concentrations of 0 mg/L (“0”), 20 mg/L (“20”), 200 mg/L (“200”), and 2000 mg/L (“2000”) or in the presence of 6′SL at concentrations of 0 mg/mL (“0”), 40 mg/mL (“40”), 400 mg/mL (“400”), and 4000 mg/mL (“4000”) for 72 hours. The culture medium utilized is Dulbecco's Modified Eagle Medium (Life Technologies, Foster City Calif.) supplemented with 10% fetal calf serum and 2 mM glutamine. The controls (“energy”) consist of 91.5 mg lactose and 64.2 mg N-acetyllactosamine/L for LNnT; 133 mg lactose and 67 mg fucose/L for 2′FL; and 195 mg lactose and 205 mg sialic acid/L for 6′SL. The impact of the LNnT, 2′FL, and 6′SL at various levels and the control on Caco-2 cell proliferation is measured using a conventional BrdU assay, which measures the number of cells that have recently synthesized DNA. […] Additionally, the impact of LNnT, 2′FL, and 6′SL at various levels and the controls on the alkaline phosphatase activity per milligram of protein for Caco-2 cells, which is an indication of cell differentiation, is measured."}, "[3]": {"tested_on": "HT-29 cells", "experiment": "HT-29 cell proliferation, BrdU assay", "type": "cell-based, human", "procedure": "In a first experiment, HT-29 cells, which model the immature epithelial cells of the small intestine, are incubated in a humidified atmosphere of 5% carbon dioxide at 37 C in the presence of LNnT at concentrations of 0 mg/L (“0”), 100 mg/L (“100”), 200 mg/L (“200”), and 400 mg/L (“400”) for either 48 hours or 72 hours. The culture medium utilized is Dulbecco's Modified Eagle Medium (Life Technologies, Foster City Calif.) supplemented with 10% fetal calf serum and 2 mM glutamine. The control consists of a combination of 91.5 mg lactose and 62.4 mg galactosamine (“LG”) per Liter of the Dulbecco's Modified Eagle Medium set forth above. The impact of the LNnT at various levels and the control on HT-29 cell proliferation is measured using a conventional BrdU assay, which measures the number of cells that have recently synthesized DNA.\nIn a first experiment, HT-29 cells, which model the immature epithelial cells of the small intestine, are incubated in a humidified atmosphere of 5% carbon dioxide at 37° C. in the presence of LNnT or 2′FL at concentrations of 0 mg/L (“0”), 20 mg/L (“20”), 200 mg/L (“200”), and 2000 mg/L (“2000”) or in the presence of 6′SL at concentrations of 0 mg/mL (“0”), 40 mg/mL (“40”), 400 mg/mL (“400”), and 4000 mg/mL (“4000”) for 72 hours. The culture medium utilized is Dulbecco's Modified Eagle Medium (Life Technologies, Foster City Calif.) supplemented with 10% fetal calf serum and 2 mM glutamine. The controls (“energy”) consist of 91.5 mg lactose and 64.2 mg N-acetyllactosamine/L for LNnT; 133 mg lactose and 67 mg fucose/L for 2′FL; and 195 mg lactose and 205 mg/L sialic acid for 6′SL. The impact of the LNnT, 2′FL, and 6′SL at various levels and the controls on HT-29 cell proliferation is measured using a conventional BrdU assay, which measures the number of cells that have recently synthesized DNA. […] Additionally, the impact of LNnT, 2′FL, and 6′SL at various levels and the controls on the alkaline phosphatase activity per milligram of protein for HT-29 cells, which is an indicator of cell differentiation, is measured."}, "[4]": {"tested_on": "B. infantis ATCC 15697", "experiment": "Bacterial growth assay (OD600)", "type": "cell-based, Bifidobacterium infantis", "conditions": "1% carbohydrate in sMRS+cysteine", "procedure": "as §1"}, "[5]": {"tested_on": "B. infantis M-63", "experiment": "Bacterial growth assay (OD600)", "type": "cell-based, Bifidobacterium infantis", "conditions": "1% carbohydrate in sMRS+cysteine", "procedure": "as §1"}}, "note": "Entries after “also recorded” stand apart in the source; their conditions may differ.", "data": [{"smiles": "CC(=O)N[C@H]1[C@H](O[C@H]2[C@@H](O)[C@@H](CO)O[C@@H](O[C@H]3[C@H](O)[C@@H](O)C(O)O[C@@H]3CO)[C@@H]2O)O[C@H](CO)[C@@H](O[C@@H]2O[C@H](CO)[C@H](O)[C@H](O)[C@H]2O)[C@@H]1O", "note": "(mixture of isomers) [LNnT, Lacto-N-neotetraose]", "values": [{"measurement": "growth / ability to ferment (OD600)", "setting": "[1]", "result": "B. breve ATCC 15700, B. infantis ATCC 15697 and B. infantis M-63 are able to ferment"}, {"measurement": "alkaline phosphatase activity per milligram of protein (cell differentiation)", "setting": "[2]", "result": "trend toward an increase"}, {"measurement": "HT-29 cell proliferation", "setting": "[3]; Example 47: 100, 200, 400 mg/L, 48 or 72 hours", "result": "reduced HT-29 cell proliferation; also recorded: inhibits intestinal cell proliferation"}, {"measurement": "HT-29 cell proliferation", "setting": "[3]; Example 48: LNnT or 2′FL 20, 200, 2000 mg/L, 6′SL 40, 400, 72 hours", "result": "capable of reducing cell proliferation at higher doses; also recorded: inhibits intestinal cell proliferation in immature epithelial cells"}, {"measurement": "growth / ability to ferment (OD600)", "setting": "[4]", "result": "grow well"}, {"measurement": "growth / ability to ferment (OD600)", "setting": "[5]", "result": "grow well"}]}]}
